Laboratory results from publication PMC12488499, “Molecular mechanism of ultrafast transport by plasma membrane Ca^2+-ATPases” (Nature, 2025).

Key:
PMCA2 [1] = target: T1, PMCA2 (Mus musculus, UniProt Q9R0K7); assay: whole-cell patch clamp, BKCa-based Ca2+ transport assay in CHO cells; set-up: gene Atp2b2; PMCA2 C-terminally fused with GFP, co-expressed with NPTN-RFP in CHO cells; with NPTN
PMCA2 [2] = target: T1, PMCA2; assay: cryo-EM structure, E1-ATP state; format: binding; set-up: gene Atp2b2; mouse PMCA2 (NM_001036684.3) with C-terminal FLAG or His-FLAG tag, expressed in tsA201 NPTN/BSG double knockout cells; with NPTN

T1 sequence (Q9R0K7 whole entry, the tested form may be a part): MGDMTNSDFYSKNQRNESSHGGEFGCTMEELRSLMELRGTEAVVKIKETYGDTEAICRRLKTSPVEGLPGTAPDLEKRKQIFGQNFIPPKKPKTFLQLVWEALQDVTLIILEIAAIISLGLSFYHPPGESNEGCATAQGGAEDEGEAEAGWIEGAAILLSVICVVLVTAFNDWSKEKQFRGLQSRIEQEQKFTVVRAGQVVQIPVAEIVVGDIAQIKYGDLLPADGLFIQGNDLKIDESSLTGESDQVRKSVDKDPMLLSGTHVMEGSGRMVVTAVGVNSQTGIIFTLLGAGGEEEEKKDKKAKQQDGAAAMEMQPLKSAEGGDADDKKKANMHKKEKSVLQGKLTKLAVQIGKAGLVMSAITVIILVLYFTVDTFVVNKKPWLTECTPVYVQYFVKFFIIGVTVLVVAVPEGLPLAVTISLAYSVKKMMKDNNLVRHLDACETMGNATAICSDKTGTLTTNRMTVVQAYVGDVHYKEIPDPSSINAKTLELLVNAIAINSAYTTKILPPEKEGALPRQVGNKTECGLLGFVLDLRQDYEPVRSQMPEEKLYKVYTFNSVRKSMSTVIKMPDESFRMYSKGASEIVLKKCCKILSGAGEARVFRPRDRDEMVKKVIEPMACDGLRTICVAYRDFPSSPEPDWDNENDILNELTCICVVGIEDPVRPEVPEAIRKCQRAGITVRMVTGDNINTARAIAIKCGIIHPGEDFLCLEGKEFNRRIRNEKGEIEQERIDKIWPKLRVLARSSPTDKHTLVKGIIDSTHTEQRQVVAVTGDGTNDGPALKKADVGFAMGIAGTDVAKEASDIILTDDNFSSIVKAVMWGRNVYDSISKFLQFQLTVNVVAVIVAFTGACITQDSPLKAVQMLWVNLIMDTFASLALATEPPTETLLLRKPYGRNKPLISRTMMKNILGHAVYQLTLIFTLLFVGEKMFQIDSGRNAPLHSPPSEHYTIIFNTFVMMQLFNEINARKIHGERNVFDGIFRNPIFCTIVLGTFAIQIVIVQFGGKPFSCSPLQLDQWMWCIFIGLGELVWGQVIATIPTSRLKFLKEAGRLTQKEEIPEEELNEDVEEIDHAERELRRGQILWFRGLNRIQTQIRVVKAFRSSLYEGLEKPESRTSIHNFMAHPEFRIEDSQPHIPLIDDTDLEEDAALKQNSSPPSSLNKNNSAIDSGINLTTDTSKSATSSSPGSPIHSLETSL
T1 sequence (P97300 29-397 partner): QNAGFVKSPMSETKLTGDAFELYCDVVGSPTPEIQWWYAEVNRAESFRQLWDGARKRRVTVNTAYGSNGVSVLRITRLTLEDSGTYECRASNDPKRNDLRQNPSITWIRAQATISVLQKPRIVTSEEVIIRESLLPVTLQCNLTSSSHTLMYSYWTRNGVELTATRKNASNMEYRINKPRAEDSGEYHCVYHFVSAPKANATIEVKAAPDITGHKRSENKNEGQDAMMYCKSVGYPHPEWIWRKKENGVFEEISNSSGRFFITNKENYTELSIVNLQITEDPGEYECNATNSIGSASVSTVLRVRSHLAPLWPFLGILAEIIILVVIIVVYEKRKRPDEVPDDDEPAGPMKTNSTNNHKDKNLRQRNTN

Row | Structure (SMILES) | IC50 (PMCA2 [1]) [nM] | cryo-EM structure, E1-ATP state (PMCA2 [2])
1 | C/C=C(/C)C(=O)O[C@H]1C(C)=C2[C@H]([C@@H]1OC(=O)CCCCCCC)[C@@](C)(OC(C)=O)C[C@H](OC(=O)CCC)[C@@]1(O)[C@H]2OC(=O)[C@@]1(C)O [thapsigargin] | 2600 | 
2 | Nc1ncnc2c1ncn2[C@@H]1O[C@H](CO[P@](=O)(O)O[P@](=O)(O)NP(=O)(O)O)[C@@H](O)[C@H]1O [AMPPNP] |  | The bound AMPPNP molecule is shown, with the corresponding cryo-EM density in grey.
